The values that follow come from article PMC9026127, “A Leucyl-tRNA Synthetase Urzyme: Authenticity of tRNA Synthetase Catalytic Activities and Promiscuous Phosphorylation of Leucyl-5′AMP” (International Journal of Molecular Sciences, 2022).

One series addresses T1, Ec LeuRS (Escherichia coli, UniProt P07813).
T1 construct: gene leuS
The settings on record: leucine activation; 50 mM HEPES pH 7.5, 10 mM MgCl2, 10 μM ATP, 50 mM amino acid, pyrophosphatase.

Series [1] has as its target T2, LeuAC (LeuRS urzyme), TEV-cleaved (Pyrococcus horikoshii, UniProt O58698).
T2 construct: gene leuS; MBP fusion (pMAL-c2x, E. coli), TEV-cleaved but MBP not separated; his-tagged
As to the kind of experiment: Sephadex G15 size-exclusion co-elution of [^[…]] leucine label. The format is binding. The following applies: labelled compound; formed in situ from [^14C] leucine and ATP, presumed leucyl-5′AMP; 50 mM HEPES pH 7.5, 20 mM MgCl2, 37 °C; only a simulated upper limit for KD.

In the next series the target is T3, P. horikoshii LeuRS (Pyrococcus horikoshii, UniProt O58698).
T3 construct: gene leuS; full length, synthetic gene in pET-11a, E. coli BL21-CodonPlus(DE3)-RIPL, Ni-NTA purified (tag not described), heat step 80 °C
T3 sequence (O58698 1-967): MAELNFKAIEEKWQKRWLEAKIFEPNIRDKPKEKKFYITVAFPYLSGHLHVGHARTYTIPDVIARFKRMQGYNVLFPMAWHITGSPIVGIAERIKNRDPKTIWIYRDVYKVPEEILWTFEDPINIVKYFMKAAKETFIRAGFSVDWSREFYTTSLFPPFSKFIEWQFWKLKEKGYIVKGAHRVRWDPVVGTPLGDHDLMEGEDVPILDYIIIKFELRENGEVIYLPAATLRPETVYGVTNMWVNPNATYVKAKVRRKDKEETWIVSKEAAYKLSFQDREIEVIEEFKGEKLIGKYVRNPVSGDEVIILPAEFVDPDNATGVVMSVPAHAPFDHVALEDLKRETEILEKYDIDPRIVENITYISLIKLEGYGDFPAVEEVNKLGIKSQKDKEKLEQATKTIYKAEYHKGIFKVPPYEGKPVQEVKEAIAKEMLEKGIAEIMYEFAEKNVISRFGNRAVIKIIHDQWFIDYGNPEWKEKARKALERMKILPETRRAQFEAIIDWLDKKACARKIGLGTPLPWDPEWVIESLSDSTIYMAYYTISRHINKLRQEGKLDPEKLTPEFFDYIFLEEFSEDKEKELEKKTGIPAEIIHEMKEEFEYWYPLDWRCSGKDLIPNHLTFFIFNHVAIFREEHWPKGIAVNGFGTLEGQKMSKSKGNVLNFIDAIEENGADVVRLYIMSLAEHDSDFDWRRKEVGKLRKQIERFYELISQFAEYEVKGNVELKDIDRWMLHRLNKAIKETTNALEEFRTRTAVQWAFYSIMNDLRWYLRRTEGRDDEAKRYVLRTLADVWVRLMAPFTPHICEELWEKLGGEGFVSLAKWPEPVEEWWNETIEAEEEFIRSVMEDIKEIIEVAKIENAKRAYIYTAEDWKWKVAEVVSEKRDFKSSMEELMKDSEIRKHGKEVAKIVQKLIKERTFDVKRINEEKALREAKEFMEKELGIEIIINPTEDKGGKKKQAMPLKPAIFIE
As to the kind of experiment: nitrocellulose filter binding, [^[…]] leucine. The following applies: labelled compound; formed in situ from 25 μM [^14C] leucine and 50 μM ATP, presumed leucyl-5′AMP; pH 7.5, 20 mM MgCl2, 37 °C.

Substrate in the series “purified protein”: CC(C)C[C@H](N)C(=O)O
As to the kind of experiment: purified protein. The format is biochemical, Pyrococcus horikoshii. The settings on record: unit not printed beside the value (M inferred), tRNA^Leu and ATP co-substrates, 50 mM HEPES pH 7.5, 10 mM MgCl2.

T1 sequence (P07813 whole entry): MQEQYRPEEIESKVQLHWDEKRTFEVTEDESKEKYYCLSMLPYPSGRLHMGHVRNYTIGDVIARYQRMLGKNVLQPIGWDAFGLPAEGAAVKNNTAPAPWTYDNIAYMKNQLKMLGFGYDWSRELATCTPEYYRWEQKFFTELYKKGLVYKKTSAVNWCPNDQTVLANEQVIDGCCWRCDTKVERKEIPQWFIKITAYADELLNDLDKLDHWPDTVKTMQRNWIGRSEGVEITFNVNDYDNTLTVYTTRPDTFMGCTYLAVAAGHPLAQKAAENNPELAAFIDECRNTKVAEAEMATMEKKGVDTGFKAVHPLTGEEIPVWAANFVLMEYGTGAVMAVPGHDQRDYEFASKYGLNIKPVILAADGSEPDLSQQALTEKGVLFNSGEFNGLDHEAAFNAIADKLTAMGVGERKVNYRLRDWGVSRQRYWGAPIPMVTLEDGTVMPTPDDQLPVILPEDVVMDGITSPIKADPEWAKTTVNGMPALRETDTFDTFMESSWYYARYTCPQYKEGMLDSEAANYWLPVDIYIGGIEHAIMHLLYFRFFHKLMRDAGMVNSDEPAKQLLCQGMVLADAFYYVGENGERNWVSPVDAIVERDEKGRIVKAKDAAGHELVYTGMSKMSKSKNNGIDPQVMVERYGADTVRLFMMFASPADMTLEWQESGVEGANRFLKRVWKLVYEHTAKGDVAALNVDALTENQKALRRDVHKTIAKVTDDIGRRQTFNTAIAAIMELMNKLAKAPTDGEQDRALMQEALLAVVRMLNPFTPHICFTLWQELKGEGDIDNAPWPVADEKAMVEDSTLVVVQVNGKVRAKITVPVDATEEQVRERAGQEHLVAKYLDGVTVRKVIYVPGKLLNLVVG

`Nc1ncnc2c1ncn2[C@@H]1O[C@H](COP(=O)(O)OP(=O)(O)OP(=O)(O)O)[C@@H](O)[C@H]1O` [ATP]: the “single-turnover active-site titration, [^32P] ATP, TLC” value on Ec LeuRS is “Full-length LeuRS from both E. coli and P. horikoshii produce minor amounts of ADP”.
In the case of `CC(C)C[C@H](N)C(=O)OP(=O)(O)OC[C@H]1O[C@@H](n2cnc3c(N)ncnc32)[C@H](O)[C@@H]1O` [leucyl-5′AMP], the “Sephadex G15 size-exclusion co-elution of [^14C] leucine label” value in series [1] is “lower limit on both the stoichiometry and affinity of the active LeuAC•leucyl-5′ AMP complex”. Besides, the “moles [^14C] leucine/mole enzyme” value at P. horikoshii LeuRS amounted to 0.48 ± 0.13 mol/mol.

B1: P. horikoshii LeuRS (Pyrococcus horikoshii OT3) (protein)
chain: MAELNFKAIEEKWQKRWLEAKIFEPNIRDKPKEKKFYITVAFPYLSGHLHVGHARTYTIPDVIARFKRMQGYNVLFPMAWHITGSPIVGIAERIKNRDPKTIWIYRDVYKVPEEILWTFEDPINIVKYFMKAAKETFIRAGFSVDWSREFYTTSLFPPFSKFIEWQFWKLKEKGYIVKGAHRVRWDPVVGTPLGDHDLMEGEDVPILDYIIIKFELRENGEVIYLPAATLRPETVYGVTNMWVNPNATYVKAKVRRKDKEETWIVSKEAAYKLSFQDREIEVIEEFKGEKLIGKYVRNPVSGDEVIILPAEFVDPDNATGVVMSVPAHAPFDHVALEDLKRETEILEKYDIDPRIVENITYISLIKLEGYGDFPAVEEVNKLGIKSQKDKEKLEQATKTIYKAEYHKGIFKVPPYEGKPVQEVKEAIAKEMLEKGIAEIMYEFAEKNVISRFGNRAVIKIIHDQWFIDYGNPEWKEKARKALERMKILPETRRAQFEAIIDWLDKKACARKIGLGTPLPWDPEWVIESLSDSTIYMAYYTISRHINKLRQEGKLDPEKLTPEFFDYIFLEEFSEDKEKELEKKTGIPAEIIHEMKEEFEYWYPLDWRCSGKDLIPNHLTFFIFNHVAIFREEHWPKGIAVNGFGTLEGQKMSKSKGNVLNFIDAIEENGADVVRLYIMSLAEHDSDFDWRRKEVGKLRKQIERFYELISQFAEYEVKGNVELKDIDRWMLHRLNKAIKETTNALEEFRTRTAVQWAFYSIMNDLRWYLRRTEGRDDEAKRYVLRTLADVWVRLMAPFTPHICEELWEKLGGEGFVSLAKWPEPVEEWWNETIEAEEEFIRSVMEDIKEIIEVAKIENAKRAYIYTAEDWKWKVAEVVSEKRDFKSSMEELMKDSEIRKHGKEVAKIVQKLIKERTFDVKRINEEKALREAKEFMEKELGIEIIINPTEDKGGKKKQAMPLKPAIFIE
notes: full length, synthetic gene in pET-11a, E. coli BL21-CodonPlus(DE3)-RIPL, Ni-NTA purified (tag not described), heat step 80 °C
Turning to B1, in the series “purified protein”, the Km is recorded as 5.9 ± 0.8 × 10^−6 M.
